#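 Five concentrations, 48 hours, 96-well plates. The concentration for 50% growth inhibition is given as GI50. TGI: total growth inhibition.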 *1 amine or outer side, *2 acyl side, *3 side chain or, on linkers, in order; H or OH if unused. Where a SMILES comes first, the peptide text is derived from it. Bridges are numbered along the chain shown (N, C = ends). [ ]: non-standard residue; d: D form. The star is where a group is joined. ξ: configuration not given here. γ4hArg(2R,3R-(OH)2) = N=C(N)NCCC[C@H](N[*:1])[C@@H](O)[C@@H](O)C(=O)[*:2]; Gln(3S,4R-Me2) = C[C@H]([C@H](N)C(=O)O)[C@@H](C)C(N)=O; X43 = CC(C)C[C@H](C)[C@@H](O)[C@@H](C)C(=O)*; X44 = COC(c1ccc(O)cc1)C(N[*:1])C(=O)[*:2]; NMeQ = CN[C@@H](CCC(N)=O)C(=O)O; Thr(3ξ) = CC(O)[C@H](N)C(=O)O; NMeA = CN[C@@H](C)C(=O)O
# Assays:
# Experiment in all cases: inhibition of tumour cell growth, NCI panel, 48 h
# [1] = test system: SK-MEL-5 melanoma
# [2] = test system: MCF7 breast
# [3] = test system: HCT-116 colon
# [4] = test system: UO-31 renal
# [5] = test system: SF-295 CNS
# [6] = test system: HCC-2998 colon
# [7] = test system: HOP-92 NSCLC
# [8] = test system: CCRF-CEM leukemia
# [9] = test system: EKVX NSCLC
# [10] = test system: NCI-H23 lung
# [11] = test system: SW-620 colon
# [12] = test system: SN12C renal
# [13] = test system: OVCAR-5 ovarian
# [14] = test system: COLO 205 colon
# [15] = test system: A549 NSCLC
# [16] = test system: MALME-3M melanoma
# [17] = test system: A498 renal
# [18] = test system: SK-MEL-2 melanoma
# [19] = test system: NCI-H522 lung
# [20] = test system: MDA-MB-231 breast
# [21] = test system: MOLT-4 leukemia
# [22] = test system: HCT-15 colon
# [23] = test system: NCI-H226 lung
# [24] = test system: SR leukemia
# [25] = test system: NCI/ADR-RES ovarian
# [26] = test system: U251 CNS
# [27] = test system: T-47D breast
# [28] = test system: OVCAR-3 ovarian
# [29] = test system: UACC-62 melanoma
# [30] = test system: M14 melanoma
# [31] = test system: CAKI-1 renal
# [32] = test system: 786-0 renal
# [33] = test system: HL-60(TB) leukemia
# [34] = test system: UACC-257 melanoma
# [35] = test system: SF-539 CNS
# [36] = test system: SNB-19 CNS
# [37] = test system: HS 578T breast
# [38] = test system: HOP-62 NSCLC
# [39] = test system: PC-3 prostate
# [40] = test system: BT-549 breast
# [41] = test system: IGROV1 ovarian
# [42] = test system: NCI-H460 lung
# [43] = test system: HT29 colon
# [44] = test system: SK-MEL-28 melanoma
# [45] = test system: DU-145 prostate
# [46] = test system: LOX IMVI melanoma
# [47] = test system: OVCAR-8 ovarian
# [48] = test system: SF-268 CNS
# [49] = test system: OVCAR-4 ovarian
# [50] = test system: RXF 393 renal
# [51] = test system: K-562 leukemia
# [52] = test system: KM12 colon
# [53] = test system: SK-OV-3 ovarian
# [54] = test system: MDA-MB-435
# [55] = test system: TK-10 renal
# [56] = test system: SNB-75 CNS
smiles,measurement,setting,value
O=C(Nc1ccc(Br)cc1F)c1cc(I)ccc1O,GI50,[1],1.48 µM
same,TGI,[1],2.98 µM
same,GI50,[2],1.97 µM
same,TGI,[2],> 100 µM
same,GI50,[3],2.79 µM
same,TGI,[3],11.4 µM
same,GI50,[4],1.52 µM
same,TGI,[4],7.51 µM
same,GI50,[5],2.11 µM
same,TGI,[5],4.85 µM
same,GI50,[6],3.14 µM
same,TGI,[6],12.7 µM
same,GI50,[7],1.08 µM
same,TGI,[7],4.8 µM
same,GI50,[8],3.58 µM
same,TGI,[8],> 100 µM
same,GI50,[9],2.25 µM
same,TGI,[9],28.6 µM
same,GI50,[10],1.9 µM
same,TGI,[10],6.01 µM
same,GI50,[11],3.07 µM
same,TGI,[11],17.7 µM
same,GI50,[12],2.75 µM
same,TGI,[12],9.91 µM
same,GI50,[13],3.17 µM
same,TGI,[13],> 100 µM
same,GI50,[14],12.8 µM
same,TGI,[14],30.8 µM
same,GI50,[15],3.17 µM
same,TGI,[15],> 100 µM
same,GI50,[16],2.07 µM
same,TGI,[16],5.56 µM
same,GI50,[17],1.32 µM
same,TGI,[17],3.46 µM
same,GI50,[18],2 µM
same,TGI,[18],5.71 µM
same,GI50,[19],2.11 µM
same,TGI,[19],7.16 µM
same,GI50,[20],1.77 µM
same,TGI,[20],6.28 µM
same,GI50,[21],2.66 µM
same,TGI,[21],7.48 µM
same,GI50,[22],2.94 µM
same,TGI,[22],12.7 µM
same,GI50,[23],1.9 µM
same,TGI,[23],5.48 µM
same,GI50,[24],2.71 µM
same,TGI,[24],> 100 µM
same,GI50,[25],2.63 µM
same,TGI,[25],8.5 µM
same,GI50,[26],2.67 µM
same,TGI,[26],> 100 µM
same,GI50,[27],1.92 µM
same,TGI,[27],6.35 µM
same,GI50,[28],3.06 µM
same,TGI,[28],> 100 µM
same,GI50,[29],1.37 µM
same,TGI,[29],4.43 µM
same,GI50,[30],2.88 µM
same,TGI,[30],13.1 µM
same,GI50,[31],1.83 µM
same,TGI,[31],6.51 µM
same,GI50,[32],3.32 µM
same,TGI,[32],11.4 µM
same,GI50,[33],2.13 µM
same,TGI,[33],4.79 µM
same,GI50,[34],2.43 µM
same,TGI,[34],6.88 µM
same,GI50,[35],2.8 µM
same,TGI,[35],12.1 µM
same,GI50,[36],3.08 µM
same,TGI,[36],> 100 µM
same,GI50,[37],2.43 µM
same,TGI,[37],9.1 µM
same,GI50,[38],2.27 µM
same,TGI,[38],8.15 µM
same,GI50,[39],2.31 µM
same,TGI,[39],7.86 µM
same,GI50,[40],2.26 µM
same,TGI,[40],6.43 µM
same,GI50,[41],1.95 µM
same,TGI,[41],> 100 µM
same,GI50,[42],3.15 µM
same,TGI,[42],> 100 µM
same,GI50,[43],16.9 µM
same,TGI,[43],78.3 µM
same,GI50,[44],2.62 µM
same,TGI,[44],11.3 µM
same,GI50,[45],3.89 µM
same,TGI,[45],> 100 µM
same,GI50,[46],2.78 µM
same,TGI,[46],14.3 µM
same,GI50,[47],3.01 µM
same,TGI,[47],15.9 µM
same,GI50,[48],2.4 µM
same,TGI,[48],29.6 µM
same,GI50,[49],3.16 µM
same,TGI,[49],> 100 µM
same,GI50,[50],2.55 µM
same,TGI,[50],7.54 µM
same,GI50,[51],2.52 µM
same,TGI,[51],> 100 µM
same,GI50,[52],2.98 µM
same,TGI,[52],9.14 µM
same,GI50,[53],2.13 µM
same,TGI,[53],7.95 µM
same,GI50,[54],3.04 µM
same,TGI,[54],10.1 µM
same,GI50,[55],4.77 µM
same,TGI,[55],9.43 µM
CC1NC(=O)C2Cc3ccc(O)c(c3)Oc3ccc(cc3)C(O)C(C(=O)N2C)N(C)C(=O)C(C)NC(=O)C(Cc2ccc(O)cc2)N(C)C(=O)C(C)NC1=O (stereo not drawn),TGI,[7],> 100 µM
same,TGI,[10],> 100 µM
same,TGI,[34],> 100 µM
same,TGI,[40],> 100 µM
C=C(C)[C@@H]1CC[C@]2(C(=O)N[C@H](CO)Cc3ccccc3)CC[C@]3(C)[C@H](CC[C@@H]4[C@@]5(C)CCCNC(C)(C)[C@@H]5CC[C@]43C)[C@@H]12,GI50,[1],1.67 µM
same,TGI,[1],3.07 µM
same,GI50,[7],1.42 µM
same,TGI,[7],3.02 µM
same,GI50,[17],1.49 µM
same,TGI,[17],2.94 µM
same,GI50,[18],1.72 µM
same,TGI,[18],3.18 µM
same,GI50,[19],1.75 µM
same,TGI,[19],3.35 µM
same,GI50,[29],1.76 µM
same,TGI,[29],3.39 µM
same,GI50,[31],1.49 µM
same,TGI,[31],2.89 µM
same,GI50,[56],1.43 µM
same,TGI,[56],2.87 µM
same,GI50,[34],1.78 µM
same,TGI,[34],3.34 µM
same,GI50,[43],0.24 µM
same,TGI,[43],0.539 µM
same,GI50,[52],1.47 µM
same,TGI,[52],2.91 µM
same,GI50,[55],1.61 µM
same,TGI,[55],3.08 µM
"COC(c1ccc(O)cc1)C1NC(=O)[C@H](CCC(N)=O)N(C)C(=O)[C@H](CC(C)C)NC(=O)[C@@H](CCCN=C(N)N)NC(=O)[C@H](C(C)O)NC(=O)[C@@H](NC(=O)[C@@H](NC(=O)[C@H](O)[C@H](O)[C@H](CCCN=C(N)N)NC(=O)[C@H](C)NC(=O)[C@H](C)[C@H](O)[C@@H](C)CC(C)C)[C@@H](C)[C@@H](C)C(N)=O)[C@@H](C)OC(=O)[C@H](C)N(C)C1=O (stereo partly drawn) (X43-A[γ4hArg(2R,3R-(OH)2)][Gln(3S,4R-Me2)]T[Thr(3ξ)][dR]L[NMeQ][X44][NMeA]; ester 4-C)",TGI,[7],0.614 µM
same,TGI,[10],0.201 µM
same,TGI,[23],0.912 µM
same,TGI,[34],0.308 µM
same,TGI,[40],0.737 µM
